From US20230104936A1, “TRPML MODULATORS” (Casma Therapeutics, Inc., priority 2019, published 2023)
Structures can show the parent of a compound that is named as a salt.

System: TFEB
Assay: TFEB nuclear translocation assay, HeLa wt cells
Assay type: cell-based
Details: 2 hrs compound treatment, Table 1 does not say HeLa wt or TRPML1 KO
Summary of the method: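 HeLa wt, 2 hr compound, 37° C; 4% PFA fix; anti-TFEB (rabbit, 1:200, overnight 4° C) + Alexa 488 secondary, Hoechst. Imaged ×20, 4 fields/well. Readout: nuclear/ring Alexa 488 intensity ratio; AC50.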

SMILES | AC50 (Homo sapiens, HeLa, 2 h) [nM] | AC50 [nM]
O=S(=O)(Nc1ccccc1N1CCC(c2ccc(F)cc2F)CC1)c1ccc(S(=O)(=O)C(F)F)cc1 [Compound A-185, 4-difluoromethanesulfonyl-N-{2-[4-(2,4-difluorophenyl)piperidin-1-yl]phenyl}benzene-1-sulfonamide] | ≤ 2000 | 
CN(C)S(=N)(=O)c1ccc(S(=O)(=O)Nc2ccccc2N2CCC(c3ccc(Cl)cc3F)CC2)cc1 (centres unmarked) [Compound A-112, 4-({2-[4-(4-chloro-2-fluorophenyl)piperidin-1-yl]phenyl}sulfamoyl)-N,N-dimethylbenzene-1-sulfonoimidamide] | ≤ 2000 | 
CC(c1cccc(F)c1N1CCC(CN2C3COCC2C3)CC1)S(=O)(=O)c1ccc(S(=O)(=O)N(C)C)cc1 (centres unmarked) [Compound A-860, 4-(1-{3-fluoro-2-[4-({3-oxa-6-azabicyclo[3.1.1]heptan-6-yl}methyl)piperidin-1-yl]phenyl}ethanesulfonyl)-N,N-dimethylbenzene-1-sulfonamide] |  | 2010 to 8000
O=C1c2ccccc2S(=O)(=O)N1c1ccccc1N1CCC(c2ccc(Cl)cc2F)CC1 [Compound A-85, 2-{2-[4-(4-chloro-2-fluorophenyl)piperidin-1-yl]phenyl}-2,3-dihydro-1λ^6,2-benzothiazole-1,1,3-trione] | ≥ 10000 | 
O=S(=O)(Nc1ccccc1N1CCN(c2ccc(Cl)cc2F)CC1)C1CCCCC1 [Compound A-8, N-{2-[4-(4-chloro-2-fluorophenyl)piperazin-1-yl]phenyl}cyclohexanesulfonamide] | ≥ 10000 | 
CCN1CCN(c2ccc(Cl)cc2NS(=O)(=O)c2ccc3c(c2)CCC3)CC1 [Compound A-289, N-[5-chloro-2-(4-ethylpiperazin-1-yl)phenyl]-2,3-dihydro-1H-indene-5-sulfonamide] | ≥ 10000 | 
CN1CC2(CCN(c3ccc(Cl)cc3NS(=O)(=O)c3ccc4c(c3)CCC4)CC2)c2ccc(F)cc21 [Compound A-439, N-(5-chloro-2-{6-fluoro-1-methyl-1,2-dihydrospiro[indole-3,4′-piperidin]-1′-yl}phenyl)-2,3-dihydro-1H-indene-5-sulfonamide] | ≤ 2000 | 
Cc1cc(S(=O)(=O)Nc2ccccc2N2CCC3(CC2)COC(C)(C)C3)ccc1F [Compound A-661, N-(2-{3,3-dimethyl-2-oxa-8-azaspiro[4.5]decan-8-yl}phenyl)-4-fluoro-3-methylbenzene-1-sulfonamide] | 2010 to 8000 | 
CN(C)S(=O)(=O)c1ccc(S(=O)(=O)Nc2ccccc2N2CCN(c3ccn(C(C)(C)C)n3)CC2)cc1 [Compound A-414, N4-{2-[4-(1-tert-butyl-1H-pyrazol-3-yl)piperazin-1-yl]phenyl}-N1,N1-dimethylbenzene-1,4-disulfonamide] | ≤ 2000 | 
CC1(C)CC2(CCN(c3ccccc3NS(=O)(=O)Cc3ccccc3)CC2)CO1 [Compound A-570, N-(2-{3,3-dimethyl-2-oxa-8-azaspiro[4.5]decan-8-yl}phenyl)-1-phenylmethanesulfonamide] | ≤ 2000 | 
O=S(=O)(Nc1ccccc1N1CCC(c2ccc(Cl)cc2F)CC1)c1cc(F)ccc1F [Compound A-82, N-{2-[4-(4-chloro-2-fluorophenyl)piperidin-1-yl]phenyl}-2,5-difluorobenzene-1-sulfonamide] | ≥ 10000 | 
CC1(C)CC2(CCN(c3ccccc3NS(=O)(=O)c3ccc4c(c3)COCC4)CC2)CO1 [Compound A-715, N-(2-{3,3-dimethyl-2-oxa-8-azaspiro[4.5]decan-8-yl}phenyl)-3,4-dihydro-1H-2-benzopyran-7-sulfonamide] | ≤ 2000 | 
Cn1cnc(S(=O)(=O)Nc2ccccc2N2CCN(c3ccc(Cl)cc3F)CC2)c1 [Compound A-2, N-{2-[4-(4-chloro-2-fluorophenyl)piperazin-1-yl]phenyl}-1-methyl-1H-imidazole-4-sulfonamide] | ≤ 2000 | 
Cc1ccc(S(=O)(=O)Nc2ccccc2N2CCC3(CC2)COC(C)(C)C3)cc1 [Compound A-662, N-(2-{3,3-dimethyl-2-oxa-8-azaspiro[4.5]decan-8-yl}phenyl)-4-methylbenzene-1-sulfonamide] | ≤ 2000 | 
CN1CC2(CCN(c3ccccc3NS(=O)(=O)c3ccc(S(=O)(=O)N(C)C)cc3)C(=O)C2)c2ccc(F)cc21 (centres unmarked) [Compound A-472, N4-(2-{6-fluoro-1-methyl-2′-oxo-1,2-dihydrospiro[indole-3,4′-piperidin]-1′-yl}phenyl)-N1,N1-dimethylbenzene-1,4-disulfonamide] | ≤ 2000 | 
Cc1cccc(CS(=O)(=O)Nc2ccccc2N2CCC3(CC2)COC(C)(C)C3)c1 [Compound A-664, N-(2-{3,3-dimethyl-2-oxa-8-azaspiro[4.5]decan-8-yl}phenyl)-1-(3-methylphenyl)methanesulfonamide] | ≤ 2000 | 
CN(C)S(=O)(=O)c1ccc(S(=O)(=O)Nc2ccccc2N2CCC(O)(c3ccncc3F)CC2)cc1 [Compound A-401, N4-{2-[4-(3-fluoropyridin-4-yl)-4-hydroxypiperidin-1-yl]phenyl}-N1,N1-dimethylbenzene-1,4-disulfonamide] | ≥ 10000 | 
CC(c1cccc(F)c1N1CCC(CN2CCC(F)(F)C2)CC1)S(=O)(=O)c1ccc(S(=O)(=O)N(C)C)cc1 (centres unmarked) [Compound A-805, 4-((1-(2-(4-((3,3-difluoropyrrolidin-1-yl)methyl)piperidin-1-yl)-3-fluorophenyl)ethyl)sulfonyl)-N,N-dimethylbenzenesulfonamide] |  | ≤ 2000
O=S(=O)(Nc1ccccc1N1CCN(c2ncc(Cl)cc2F)CC1)c1ccc(S(=O)(=O)C(F)(F)F)cc1 [Compound A-178, N-{2-[4-(5-chloro-3-fluoropyridin-2-yl)piperazin-1-yl]phenyl}-4-trifluoromethanesulfonylbenzene-1-sulfonamide] | ≤ 2000 | 
Cc1ccc(S(=N)(=O)Nc2ccccc2N2CCC(c3ccc(Cl)cc3F)CC2)cc1 (centres unmarked) [Compound A-151, N-{2-[4-(4-chloro-2-fluorophenyl)piperidin-1-yl]phenyl}-4-methylbenzene-1-sulfonoimidamide] | 2010 to 8000 | 
CN1CC2(CCN(c3ccccc3NS(=O)(=O)c3ccc(SC(C)(C)C)cc3)CC2)c2ccc(F)cc21 [Compound A-517, 4-(tert-butylsulfanyl)-N-(2-{6-fluoro-1-methyl-1,2-dihydrospiro[indole-3,4′-piperidin]-1′-yl}phenyl)benzene-1-sulfonamide] | 2010 to 8000 | 
CC1(C)CC2(CCN(c3ccccc3NS(=O)(=O)c3ccc(OC(F)F)c(F)c3)CC2)CO1 [Compound A-667, 4-(difluoromethoxy)-N-(2-{3,3-dimethyl-2-oxa-8-azaspiro[4.5]decan-8-yl}phenyl)-3-fluorobenzene-1-sulfonamide] | 2010 to 8000 | 
CC(=O)NC1(c2ccc(Cl)cc2F)CCN(c2ccccc2NS(=O)(=O)c2ccc(S(=O)(=O)N(C)C)cc2)CC1 [Compound A-153, N-[4-(4-chloro-2-fluorophenyl)-1-{2-[4-(dimethylsulfamoyl)benzenesulfonamido]phenyl}piperidin-4-yl]acetamide] | 2010 to 8000 | 
CCN1CCN(c2c(Cl)cccc2NS(=O)(=O)c2ccc3c(c2)CCC3)CC1 [Compound A-300, N-[3-chloro-2-(4-ethylpiperazin-1-yl)phenyl]-2,3-dihydro-1H-indene-5-sulfonamide hydrochloride] | 2010 to 8000 | 
CN1CC(c2ccccc2)C2(CCN(c3ccccc3NS(=O)(=O)c3ccc(S(=O)(=O)N(C)C)cc3)CC2)C1 (centres unmarked) [Compound A-302, N1,N1-dimethyl-N4-(2-{2-methyl-4-phenyl-2,8-diazaspiro[4.5]decan-8-yl}phenyl)benzene-1,4-disulfonamide] | ≥ 10000 | 
COCC1(C)CCN(c2ccccc2NS(=O)(=O)Cc2ccc3c(c2)COCC3)CC1 [Compound A-571, 1-(3,4-dihydro-1H-2-benzopyran-7-yl)-N-{2-[4-(methoxymethyl)-4-methylpiperidin-1-yl]phenyl}methanesulfonamide] | 2010 to 8000 | 
